# In patent publication US5877185A, “Synergistic compositions useful as anti-tumor agents” (priority 1995, dated 1999):
# Read-outs that look alike come from different tables or passages of the source.
# Experiments:
# [1] = test system: L-1210 Murine Leukemia Cells; assay: effect of nitroso- and nitro-compounds in L-1210 murine leukemia cells (suspension); format: cell-based; details: drug exposure 18 hours
# Procedure: II. I50 and LD100 Values for Nitroso- and Nitro-Compounds in (A) Mammary Cancer Cells (monolayer cultures) and in (B) L-1210 Murine Leukemia Cells (suspension culture).
# Cells were seeded at 5×10^4 to 2×10^5 /ml; drugs were added at the time of seeding; drug exposure was for 18 hours.
# HIV-1 (MN strain) = assay: infectivity of NOBA-treated HIV-1 virions; format: cell-based; details: 3000 or 6000 μM NOBA, 37° C.
# E ras cells = assay: cytostatic and cytocidal activity; format: cell-based, bovine; details: Bos taurus, average of three trials
# Excerpt: pADPRT ligands that oxidize CCHC zinc fingers are not unique inhibitors of pADPRT. […] Hakam et al., FEBS Lett. 193:1-4 (1991). These ligands bind non-covalently to the nicotinamide site and internal DNA-seeking domains of pADPRT. Bauer et al., manuscript in preparation (1994). In contrast, CCHC-oxidizing ligands also bind non-covalently to the nicotinamide site, but initially attack the F1 zinc finger oxidatively. Id. […] Id. […] U.S. Ser. No. 08/076,313 filed Jun. 11, 1993.
# Each value is the average of three trials. Each trial deviated from the average by no more than twenty percent. […] Another isomer of the iodo-nitro-benzamide series, 2-iodo-4-nitrobenzamide had no effect at the concentrations given above.
# [2] = metabolic conversion of INO2 BA to INH2 BA by 855-2 cells; format: in vitro ADME; details: 855-2 cells; 120 μM INO2 BA, 37° C.; read-out: rate of reduction of the nitro to the amino end-product
# Procedure: (§1) The cell metabolites of INO2 BA metabolism were identified. A suspension of 855-2 cells (6), 150×10^6 cells in ml of RPMI-1640 medium, was dosed with INO2 BA to a concentration of 120 μM, incubated at 37° C. for 18 hr, and then freeze-dried, extracted 3 times with EtOH (10 ml each time) for 30 min and centrifuged. The extract was rotary evaporated to dryness, redissolved in EtOH (3.0 ml), microfuged to remove small particles, and aliquots (200 μl) injected into HPLC. In control experiments, instead of incubating the drug-dosed cell suspension it was immediately frozen, freeze-dried and extracted. HPLC analyses were performed essentially as reported earlier, except the pH of the buffers was 4.3. Buki et al., FEBS Lett. 290:181-185 (1991). Upon sample injection the gradient started from 100%A to 100%B in 30 min, to 50%B/50%C in 15 min, to 100%C in 3 min. Retention times of synthetic standards were: 4-iodo-3-hydroxylaminobenzamide 18.7 min; 4-iodo-3-aminobenzamide ("INH2 BA") 24.7 min; INO2 BA 34.5 min; INOBA 36.5 min and 6,6'-diiodo-3,3'-dicarbamoylazoxybenzene 46.9 min.
# 855-2 cells = assay: as above; format: in vitro ADME; details: 120 μM INO2 BA, 18 hr, 37° C.
# Procedure: as §1
# MDA-468 = assay: cytotoxicity of INO2 BA with and without BSO, MDA-468; format: cell-based; details: Homo sapiens
# Procedure: (§2) The concentration of BSO was 1 mM for all cell lines except HT 144, where the concentration was 0.25 mM. Cells were seeded in the recommended growth medium at a density of 1.5×10^4 cell/cm^2 into 2 cm^2 wells. Drugs were added simultaneously 4 hours after seeding, and incubation was continued for 48 hours at 37° C. in a 5% CO2 atmosphere. For assessment of drug effects cells were detached by trypsinization and counted in a hemacytometer.
# (§3) Cell lines Nos. 1-4 were obtained from Dr. C. Benz, University of California, San Francisco. MDA 468 and MCF-7 human mammary cancer lines, MCF-7-B-ADR drug-resistant mammary cancer line, Du 145 drug-resistant human prostate cancer line, HT 144 human melanoma cell line, Hep-G2 human hepatocellular carcinoma line, and PC-12 rat pheochromocytoma line were obtained from the University of California Cell Culture Facility.
# HT 144 = assay: cytotoxicity of INO2 BA with and without BSO, HT 144; format: cell-based; details: Homo sapiens
# Procedure: as §2, §3
# U 937 = assay: cytotoxicity of INO2 BA with and without BSO, U 937; format: cell-based; details: Homo sapiens, INO2 BA alone, 48 hours
# Procedure: as §2, §3
# [3] = non-toxicity in hamsters, intraperitoneal; format: in vivo
Compound,I50 [1] [nanomoles/10^5 cells],LD100 [1] [nanomoles/10^5 cells],infectivity (HIV-1 (MN strain)),"IC50 (E ras cells; E ras cells, read-out: Cytostatic Effect I50) [µM]","IC50 (E ras cells; with 0.8 mM BSO, read-out: Cytocidal Effect I50) [µM]","metabolised at 18 h, 120 µM [2] [%]",identified metabolite (855-2 cells),"IC100 (MDA-468; 48 h, read-out: LD100) [µM]","IC50 (MDA-468; INO2 BA alone, 48 hours, read-out: I50) [µM]","IC100 (HT 144; HT-144, 48 h, read-out: LD100) [µM]","IC50 (HT 144; HT-144, INO2 BA alone, 48 hours, read-out: I50) [µM]",IC50 (U 937; read-out: I50) [µM],IC100 (U 937; read-out: LD100) [µM],toxic effects ([3]; 200 mg/kg intraperitoneally daily for 12 days),"toxic effects ([3]; 200 mg/kg intraperitoneally daily for 14 days, twelve hamsters)"
"NC(=O)c1cccc(N=O)c1 [NOBA, 3-nitrosobenzamide]",7.5,15,complete loss of infectivity,–,–,–,–,–,–,–,–,–,–,–,–
"NC(=O)c1ccc(I)c([N+](=O)[O-])c1 [INO2 BA, 4-iodo-3-nitrobenzamide]",–,–,–,60,4,2.2 ± 0.2,the only identified metabolite was INH2 BA,180,80,200,100,65,150,no toxic effects,without toxic effects
